# Test results reported in patent US9486440B2, “Uses of indole-ketones or indolidones as neuro-protective drugs” (UNIVERSITY OF MACAU, priority 2011, dated 2016).
# Legend:
# th gene = assay: MPTP zebrafish, th gene expression by real-time PCR; assay type: in vivo; settings: 200 μM MPTP, 48 hours
# Protocol: Wild-type zebrafish (AB strain) and Tg (fli-1:EGFP) transgenic zebrafish were maintained as described in the Zebrafish Handbook (Westerfield, 1993). Zebrafish embryos were generated by natural pair-wise mating (3-12 months old) and raised at 28.5° C. in embryo medium (13.7 mM NaCl, 540 μM KCl, pH 7.4, 25 μM Na2HPO4, 44 μM KH2PO4, 300 μM CaCl2, 100 μM MgSO4, 420 μM NaHCO3, pH 7.4). […] An equal concentration of DMSO in embryo medium was used as vehicle control in each experiment.
# Healthy zebrafish embryos were picked out and […] manually at 1 day post fertilization (dpf) and distributed into a 12-well plate with 20 fish embryos or a 6-well microplate with 30 fish embryos in each well. […] Thus subsequent studies were done with 200 μM MPTP for whole-mount immunostaining and gene expression experiments.
# Total RNA was extracted from 30 zebrafish larvae of each treatment group using the RNeasy Mini Kit (Qiagen, USA) according to the manufacturer's instructions. […] The expression of the mRNA was normalized to the amount of bactin1 using the relative quantification method described by the manufacturer. […]
# [1] = SU4312 in brain homogenate of rats after i.p. administration (HPLC); assay type: in vivo, rat; settings: 12 mg/kg i.p.
# Protocol: To investigate whether SU4312 could reach the brain, an HPLC method was used to detect SU4312 in the brain homogenate and plasma of rats (Scott et al., 2004; Spitsin et al., 2008). Briefly, after drug administration by i.p., the animals were transcardially perfused with PBS/heparin (1000 U/L). Then rats were sacrificed by decapitation and brain tissue was homogenized. SU4312 in the brain homogenate was extracted with 3 ml […]. After evaporating the solvent, the residue was reconstituted in 50 μl methanol. SU4312 in the brain tissue was identified by an Agilent 1200 Series HPLC coupled with UV detector at a wavelength of 254 nm. Prior to the preparation of brain homogenate, transcardial perfusion with PBS/heparin was conducted in order to remove blood from cerebravascular system so as to avoid the interference of the SU4312 that simply retained in the brain vasculature.
# Plasma concentration of SU4312 was also assayed by an HPLC method. Briefly, after drug administration by i.p., serial blood samples were collected through right internal jugular vein catheterization at various time points post-dosing. The plasma samples were treated with acetonitrile and methanol followed by centrifugation, and 20 μl supernatants were injected into the liquid chromatographic system. The mobile phase consisted of a mixture of methanol and water (80:20, v/v) at a flow rate of 1 ml/min.
# ERK and Akt pathways = assay: Western blot of phospho-Akt and phospho-ERK after MPP+; assay type: cell-based; settings: data not shown
# [2] = phase I, 145 mg/m^2; cited from earlier work
# [3] = system: nNOS knockdown PC12 cells; assay: MPP+ in ShRNA-mediated nNOS knockdown PC12 cells; assay type: cell-based, rat; settings: 20 μM SU5416 2 hours, then 1 mM MPP+ 24 hours
# Protocol: The assay was performed according to the specifications of the manufacturer (MTT kit I; Roche Applied Science). […] After the incubation, 100 μl of the solvating solution (0.01 N HCl in 10% SDS solution) was added to each well for 16-20 hours. The absorbance of the samples was measured at a wavelength of 570 nm with 655 nm as a reference wavelength. Unless otherwise indicated, the extent of MTT conversion in cells exposed to MPP^+ is expressed as a percentage of the control. Cytotoxicity was determined by measuring the release of lactate dehydrogenase (LDH). Briefly, cells were precipitated by centrifugation at 500 g for 5 min at room temperature, 50 μl of the supernatants was transferred into new wells, and LDH was determined using the in vitro toxicology assay kit (Roche). The absorbance of the samples was measured at a wavelength of 490 nm with 655 nm as a reference wavelength. ShRNA against rat nNOS was designed according to […] et al, 2009. […] NM_052799), was used to generate shRNA. […] Sense and antisense oligonucleotides were then annealed and cloned into pG418-GFP vector to express shRNA directed against nNOS under the control of the U6 promoter (GenePharma, Shanghai, China). A negative control shRNA (ShNC) with the same nucleotide composition but lacks significant sequence homology to the genome was also used in the experiments. […]
# CGNs = assay: Low potassium-induced cell death in CGNs, MTT assay; assay type: cell-based; settings: 5 mM KCl BME medium, 24 hours; sunitinib 0.1-2 μM
# Protocol: Cell viability was measured by MTT assay at 24 hours after low potassium challenge. […] After 24 hours of low potassium challenge, CGNs were assayed with an FDA/PI double staining. […] After 24 hours of low potassium challenge, CGNs were assayed with Hoechst staining. The number of apoptotic nuclei with condensed chromatin were counted from representative Hoechst staining photomicrographs and represented as a percentage of the total number of nuclei counted. […] Intracellular NO level was measured using DAF-FM diacetate as a probe at 4 hour after low potassium challenge. Data, expressed as percentage of control (CGNs were cultured in high potassium medium), were the mean±SEM of three separate experiments; *p<0.05 and **p<0.01 versus low potassium group in (A) and (D) or versus control in (C); ^##p<0.01 versus low potassium group in (C) (Turkey's test).
# It was previously reported that low potassium could induce typical apoptosis in cerebellar granule neurons (CGNs) (Fu et al., 2008). […] Cell viability was measured with an MTT assay 24 hours after the low potassium treatment.
compound,measurement,setting,value
"CN(C)c1ccc(C=C2C(=O)Nc3ccccc32)cc1 [SU4312, 3-[4-(dimethylamino)benzylidenyl]indolin-2-one]",th gene expression down-regulated by MPTP,th gene,significantly alleviated the loss of DA neurons and decrease of th gene expression in a concentration-dependent manner
same,"detection in the brain, 15 min",[1]; 15 min post-administration,could rapidly penetrate into the brain and be detected in the brain 15 min post-administration
same,"detection in the brain, 60 min",[1]; 60 min after administration,almost no SU4312 was detected in the brain
"Cc1cc(C)c(/C=C2\C(=O)Nc3ccccc32)[nH]1 [SU5416, (3Z)-3-[(3,5-dimethyl-1H-pyrrol-2-yl)methylidene]-1,3-dihydro-2H-indol-2-one]",activities of phospho-Akt and phospho-ERK,ERK and Akt pathways,"could neither inhibit the activation of pro-apoptotic ERK pathway, nor reverse the decrease of pro-survival Akt pathway"
same,tolerability in patients with advanced malignancies,[2],well tolerated
same,"MPP+-induced cell death in nNOS knockdown PC12 cells (MTT, LDH)",[3],no longer able to inhibit MPP^+-induced cell death
Clc1ccc(Nc2nnc(Cc3ccncc3)c3ccccc23)cc1 [PTK787/ZK222584],low potassium-induced cell death (MTT),CGNs,at 3 and 10 μM both failed to block neuronal loss in vitro
